Results as given in patent EP4610269A1, “UROKINASE PLASMINOGEN ACTIVATOR SURFACE RECEPTOR (UPAR) LIGANDS FOR DIAGNOSTIC OR THERAPEUTIC USE” (3B Pharmaceuticals GmbH, priority 2024, dated 2025).
Where a SMILES comes first, the peptide text is derived from it. Bridges are numbered along the chain shown (N, C = ends). [ ]: non-standard residue; d: D form. The star is where a group is joined. DOTA = O=C(O)CN1CCN(CC(=O)O)CCN(CC(=O)*)CCN(CC(=O)O)CC1; Phe(4-Cl) = N[C@@H](Cc1ccc(Cl)cc1)C(=O)O; Phe(4-NH2) = Nc1ccc(C[C@H](N)C(=O)O)cc1; Pro(4S-NH2) = N[C@@H]1CN[C@H](C(=O)O)C1; Pentanesulfonyl = CCCCCS(=O)(=O)*; Ser(ΨH,HPro) = O=C(O)[C@@H]1COCN1; Hyp = O=C(O)[C@@H]1C[C@@H](O)CN1; NMeE = CN[C@@H](CCC(=O)O)C(=O)O; Pentanoyl(4-Me) = CC(C)CCC(=O)*; Cha = N[C@@H](CC1CCCCC1)C(=O)O; Cit = NC(=O)NCCC[C@H](N)C(=O)O; dNva = CCC[C@@H](N)C(=O)O; NMeA = CN[C@@H](C)C(=O)O; Nle = CCCC[C@H](N)C(=O)O; dDap = NC[C@@H](N)C(=O)O; Nva = CCC[C@H](N)C(=O)O; Hexanoyl = CCCCCC(=O)*; Pentanoyl = CCCCC(=O)*

Key:
[1] = molecular target: T1, uPAR-expressing HEC-265 human endometrial adenocarcinoma cells (Homo sapiens, UniProt Q03405); experiment: Competitive FACS binding assay; details: pIC50 category of FACS binding
T1 construct: Cell surface uPAR-expressing HEC-265 human endometrial adenocarcinoma cells; host or cells: HEC-265
How it was run: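 HEC-265 cells incubated 1 h at 4 °C with 10 nM biotinylated uPAR peptide tracer plus increasing test compound, then stained with APC-streptavidin on ice. Median APC fluorescence by flow cytometry; 4PL fit gives pIC50.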

human uPAR (uPAR-Fc) = molecular target: T2, human uPAR (uPAR-Fc) (Homo sapiens, UniProt Q03405); experiment: Surface plasmon resonance (SPR) assay, single cycle kinetics; format: binding; details: pKD category for uPAR SPR activity assay; uPAR-Fc on Protein A-Chip, 25°C; read-out: pKD CAT (converted)
T2 construct: comprising amino acids Leu23-Arg303 according to UniProt entry Q03405.1; purchased R&D Systems 10378-UK-100
How it was run: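 uPAR-Fc (Leu23-Arg303 extracellular domains, human IgG1 Fc) captured on Protein A chip to ~2000 RU; single-cycle kinetics at 25°C in HEPES running buffer pH 7.4 with 0.1% DMSO. KD from double-referenced sensorgrams fitted to 1:1 Langmuir model, reported as pKD.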

T2 sequence (Q03405 23-303): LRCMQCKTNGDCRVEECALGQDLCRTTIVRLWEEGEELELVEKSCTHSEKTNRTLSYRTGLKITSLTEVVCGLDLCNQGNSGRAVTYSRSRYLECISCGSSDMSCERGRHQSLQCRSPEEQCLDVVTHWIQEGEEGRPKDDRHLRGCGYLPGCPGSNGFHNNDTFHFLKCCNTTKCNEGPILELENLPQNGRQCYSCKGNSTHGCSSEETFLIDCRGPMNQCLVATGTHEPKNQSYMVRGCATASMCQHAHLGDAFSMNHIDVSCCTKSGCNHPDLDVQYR
T1 sequence (Q03405 23-335): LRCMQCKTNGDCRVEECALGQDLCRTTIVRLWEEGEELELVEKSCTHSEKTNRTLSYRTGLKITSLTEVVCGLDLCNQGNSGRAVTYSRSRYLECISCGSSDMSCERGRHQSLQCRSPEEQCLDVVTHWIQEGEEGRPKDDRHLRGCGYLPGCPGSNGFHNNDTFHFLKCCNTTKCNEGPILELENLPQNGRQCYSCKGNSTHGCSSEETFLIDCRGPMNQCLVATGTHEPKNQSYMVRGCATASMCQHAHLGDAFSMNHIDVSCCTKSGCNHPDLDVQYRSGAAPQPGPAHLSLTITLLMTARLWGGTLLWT

Structure (SMILES)	IC50 [1] [nM]	Kd (human uPAR (uPAR-Fc)) [nM]
CCCCC(=O)N[C@H]1CSSC[C@@H](C(N)=O)NC(=O)[C@H](CCC)NC(=O)[C@H]([C@@H](C)CC)NC(=O)[C@H](C)N(C)C(=O)[C@@H]2CCCN2C(=O)[C@H](Cc2ccccc2)NC(=O)[C@H](Cc2ccc(O)cc2)NC(=O)[C@H](CCCCNC(=O)CN2CCN(CC(=O)O)CCN(CC(=O)O)CCN(CC(=O)O)CC2)NC(=O)[C@H](CCCNC(N)=O)NC1=O [UPAR-316, Pent-[Cys-Cit-Lys(DOTA)-Tyr-Phe-Pro-Nma-Ile-Nva-Cys]-NH2] (Pentanoyl-C[Cit]K(DOTA)YFP[NMeA]I[Nva]C-NH2; disulfide 1-10)	12.6 to 31.6	1.58 to 10
CCCCCC(=O)N[C@H](C(=O)N[C@@H](CC(C)C)C(=O)N[C@H]1CSSC[C@@H](C(N)=O)NC(=O)[C@H](CC(C)C)NC(=O)[C@H]([C@@H](C)CC)NC(=O)[C@H](C)NC(=O)[C@@H]2CCCN2C(=O)[C@H](Cc2ccccc2)NC(=O)[C@H](Cc2ccc(O)cc2)NC(=O)[C@H](CC(C)C)NC(=O)[C@H](CC(=O)O)NC1=O)[C@@H](C)O [UPAR-318, Hex-Thr-Leu-[Cys-Asp-Leu-Tyr-Phe-Pro-Ala-Ile-Leu-Cys]-NH2] (Hexanoyl-TLCDLYFPAILC-NH2; disulfide 3-12)	≤ 10	< 1.58
CC[C@H](C)[C@@H]1NC(=O)[C@@H](C)NC(=O)[C@H](C)NC(=O)[C@H](Cc2ccccc2)NC(=O)[C@H](Cc2ccc(O)cc2)NC(=O)[C@H](CCC(N)=O)NC(=O)[C@H](CCCNC(N)=O)NC(=O)[C@@H](NC(=O)CCC(C)C)CSSC[C@@H](C(N)=O)NC(=O)[C@H](CC(C)C)NC1=O [UPAR-319, iHex-[Cys-Cit-Gln-Tyr-Phe-Ala-ala-Ile-Leu-Cys]-NH2] ({Pentanoyl(4-Me)}-C[Cit]QYFA[dA]ILC-NH2; disulfide 1-10)	39.8 to 100	10 to 100
CCCCC(=O)N[C@H]1CSSC[C@@H](C(N)=O)NC(=O)[C@H](CCC)NC(=O)[C@H]([C@@H](C)CC)NC(=O)[C@@H]2C[C@@H](O)CN2C(=O)[C@@H]2CCCN2C(=O)[C@H](Cc2ccccc2)NC(=O)[C@H](Cc2ccc(N)cc2)NC(=O)[C@H](CCCCNC(=O)CN2CCN(CC(=O)O)CCN(CC(=O)O)CCN(CC(=O)O)CC2)NC(=O)[C@H](CCCNC(N)=O)NC1=O [UPAR-320, Pent-[Cys-Cit-Lys(DOTA)-Aph-Phe-Pro-Hyp-Ile-Nva-Cys]-NH2] (Pentanoyl-C[Cit]K(DOTA)[Phe(4-NH2)]FP[Hyp]I[Nva]C-NH2; disulfide 1-10)	≤ 10	< 1.58
CC[C@H](C)[C@@H]1NC(=O)[C@@H](C)NC(=O)[C@@H]2COCN2C(=O)[C@H](Cc2ccccc2)NC(=O)[C@H](Cc2ccc(O)cc2)NC(=O)[C@H](CCC(N)=O)NC(=O)[C@H](CCCNC(N)=O)NC(=O)[C@@H](NC(=O)CCC(C)C)CSSC[C@@H](C(N)=O)NC(=O)[C@H](CC(C)C)NC1=O [UPAR-321, iHex-[Cys-Cit-Gln-Tyr-Phe-Oxa-ala-Ile-Leu-Cys]-NH2] ({Pentanoyl(4-Me)}-C[Cit]QYF[Ser(ΨH,HPro)][dA]ILC-NH2; disulfide 1-10)	≤ 10	1.58 to 10
CCCCC(=O)N[C@H]1CSSC[C@@H](C(N)=O)NC(=O)[C@H](CCC)NC(=O)[C@H]([C@@H](C)CC)NC(=O)[C@@H](CCC)NC(=O)[C@@H]2CCCN2C(=O)[C@H](Cc2ccccc2)NC(=O)[C@H](Cc2ccc(O)cc2)NC(=O)[C@H](CCC(N)=O)NC(=O)[C@H](CCCNC(=N)N)NC1=O [UPAR-322, Pent-[Cys-Arg-Gln-Tyr-Phe-Pro-nva-Ile-Nva-Cys]-NH2] (Pentanoyl-CRQYFP[dNva]I[Nva]C-NH2; disulfide 1-10)	12.6 to 31.6	1.58 to 10
CCCC[C@@H]1NC(=O)[C@H](CCCNC(=N)N)NC(=O)[C@@H](NC(=O)[C@H](CC(C)C)NC(=O)[C@H](CC(=O)O)NC(C)=O)CSSC[C@H](C(N)=O)NC(=O)[C@H](CC(C)C)NC(=O)[C@H]([C@@H](C)CC)NC(=O)[C@H](C)NC(=O)[C@@H]2CCCN2C(=O)[C@H](Cc2ccccc2)NC(=O)[C@H](Cc2ccc(O)cc2)NC1=O [UPAR-323, Ac-Asp-Leu-[Cys-Arg-Nle-Tyr-Phe-Pro-Ala-Ile-Leu-cys]-NH2] (Ac-DLCR[Nle]YFPAIL[dC]-NH2; disulfide 3-12)	12.6 to 31.6	1.58 to 10
CCCCC(=O)N[C@H]1CSSC[C@@H](C(N)=O)NC(=O)[C@H](CCC)NC(=O)[C@H]([C@@H](C)CC)NC(=O)[C@@H]2C[C@@H](O)CN2C(=O)[C@@H]2CCCN2C(=O)[C@H](Cc2ccccc2)NC(=O)[C@H](Cc2c[nH]cn2)NC(=O)[C@H](CCCCNC(=O)CN2CCN(CC(=O)O)CCN(CC(=O)O)CCN(CC(=O)O)CC2)NC(=O)[C@H](CCCNC(N)=O)NC1=O [UPAR-324, Pent-[Cys-Cit-Lys(DOTA)-His-Phe-Pro-Hyp-Ile-Nva-Cys]-NH2] (Pentanoyl-C[Cit]K(DOTA)HFP[Hyp]I[Nva]C-NH2; disulfide 1-10)	≤ 10	< 1.58
CCCCC(=O)N[C@H]1CSSC[C@@H](C(N)=O)NC(=O)[C@H](CCC)NC(=O)[C@H]([C@@H](C)CC)NC(=O)[C@@H]2C[C@H](N)CN2C(=O)[C@@H]2CCCN2C(=O)[C@H](Cc2ccccc2)NC(=O)[C@H](Cc2ccc(O)cc2)NC(=O)[C@H](CCCCNC(=O)CN2CCN(CC(=O)O)CCN(CC(=O)O)CCN(CC(=O)O)CC2)NC(=O)[C@H](CCCNC(N)=O)NC1=O [UPAR-325, Pent-[Cys-Cit-Lys(DOTA)-Tyr-Phe-Pro-4Ap-Ile-Nva-Cys]-NH2] (Pentanoyl-C[Cit]K(DOTA)YFP[Pro(4S-NH2)]I[Nva]C-NH2; disulfide 1-10)	≤ 10	< 1.58
CC(C)CCC(=O)N[C@H]1CSSC[C@@H](C(N)=O)NC(=O)[C@H](CC(C)C)NC(=O)[C@H](CC2CCCCC2)NC(=O)[C@@H](C)NC(=O)[C@@H]2CCCN2C(=O)[C@H](Cc2ccccc2)NC(=O)[C@H](Cc2ccc(O)cc2)NC(=O)[C@H](CCC(N)=O)NC(=O)[C@H](CCCNC(N)=O)NC1=O [UPAR-326, iHex-[Cys-Cit-Gln-Tyr-Phe-Pro-ala-Cha-Leu-Cys]-NH2] ({Pentanoyl(4-Me)}-C[Cit]QYFP[dA][Cha]LC-NH2; disulfide 1-10)	≤ 10	< 1.58
CCCCC(=O)N[C@H]1CSSC[C@@H](C(N)=O)NC(=O)[C@H](CCC)NC(=O)[C@H]([C@@H](C)CC)NC(=O)[C@H](CCC(=O)O)N(C)C(=O)[C@@H]2CCCN2C(=O)[C@H](Cc2ccccc2)NC(=O)[C@H](Cc2ccc(O)cc2)NC(=O)[C@H](CCCCNC(=O)CN2CCN(CC(=O)O)CCN(CC(=O)O)CCN(CC(=O)O)CC2)NC(=O)[C@H](CCCNC(N)=O)NC1=O [UPAR-327, Pent-[Cys-Cit-Lys(DOTA)-Tyr-Phe-Pro-Nme-Ile-Nva-Cys]-NH2] (Pentanoyl-C[Cit]K(DOTA)YFP[NMeE]I[Nva]C-NH2; disulfide 1-10)	≥ 126	> 100
CCCCCS(=O)(=O)N[C@H]1CSSC[C@@H](C(N)=O)NC(=O)[C@H](CCC)NC(=O)[C@H]([C@@H](C)CC)NC(=O)[C@@H]2C[C@@H](O)CN2C(=O)[C@@H]2CCCN2C(=O)[C@H](Cc2ccccc2)NC(=O)[C@H](Cc2ccc(O)cc2)NC(=O)[C@H](CCC(N)=O)NC(=O)[C@H](CCCNC(=N)N)NC1=O [UPAR-328, PentylSO2-[Cys-Arg-Gln-Tyr-Phe-Pro-Hyp-Ile-Nva-Cys]-NH2] (Pentanesulfonyl-CRQYFP[Hyp]I[Nva]C-NH2; disulfide 1-10)	≤ 10	< 1.58
CCCCC(=O)N[C@H]1CSSC[C@@H](C(N)=O)NC(=O)[C@H](CCC)NC(=O)[C@H]([C@@H](C)CC)NC(=O)[C@@H](CO)NC(=O)[C@@H]2CCCN2C(=O)[C@H](Cc2ccccc2)NC(=O)[C@H](Cc2ccc(O)cc2)NC(=O)[C@H](CCC(N)=O)NC(=O)[C@H](CCCNC(=N)N)NC1=O [UPAR-329, Pent-[Cys-Arg-Gln-Tyr-Phe-Pro-ser-Ile-Nva-Cys]-NH2] (Pentanoyl-CRQYFP[dS]I[Nva]C-NH2; disulfide 1-10)	≤ 10	< 1.58
CCCCC(=O)N[C@H]1CSSC[C@@H](C(N)=O)NC(=O)[C@H](CCC)NC(=O)[C@H]([C@@H](C)CC)NC(=O)[C@@H](CN)NC(=O)[C@@H]2CCCN2C(=O)[C@H](Cc2ccccc2)NC(=O)[C@H](Cc2ccc(O)cc2)NC(=O)[C@H](CCC(N)=O)NC(=O)[C@H](CCCNC(=N)N)NC1=O [UPAR-330, Pent-[Cys-Arg-Gln-Tyr-Phe-Pro-dap-Ile-Nva-Cys]-NH2] (Pentanoyl-CRQYFP[dDap]I[Nva]C-NH2; disulfide 1-10)	≤ 10	< 1.58
CC[C@H](C)[C@@H]1NC(=O)[C@@H](C)NC(=O)[C@@H]2CCCN2C(=O)[C@H](Cc2ccc(Cl)cc2)NC(=O)[C@H](Cc2ccc(O)cc2)NC(=O)[C@H](CCC(N)=O)NC(=O)[C@H](CCCNC(N)=O)NC(=O)[C@@H](NC(=O)CCC(C)C)CSSC[C@@H](C(N)=O)NC(=O)[C@H](CC(C)C)NC1=O [UPAR-332, iHex-[Cys-Cit-Gln-Tyr-Pcf-Pro-ala-Ile-Leu-Cys]-NH2] ({Pentanoyl(4-Me)}-C[Cit]QY[Phe(4-Cl)]P[dA]ILC-NH2; disulfide 1-10)	≤ 10	< 1.58
